Structures can show the parent of a compound that is named as a salt.
Key:
sigma receptor [1] = conditions: disclosed in J. Med. Chem. 37, 364 (1994), Neuroscience Lett. 260, 5 (1999), JP-A 11-349481; cited from earlier work
Sigma receptor [2] = test: Sigma receptor binding assay (3H-DTG, guinea pig brain crude membrane fraction); conditions: for IC50: inhibition of 3H-DTG binding to guinea pig brain crude membrane fraction, 25° C., 1 hour; for sigma receptor binding action: result in words, no value given
Method: Sigma Receptor Binding Assay
(1) Preparation of Receptor
Ten male guinea pigs (Crj, Hartley, from Charles River Japan, Inc.) (body weight: 234 g to 260 g) were decapitated, exsanguinated and died. The brain was immediately removed, homogenized with ten volumes of 50 mM Tris-HCl (pH 7.4) using a Teflon homogenizer and was centrifuged at a rate of 50000× g at 4° C. for 20 minutes. The washing procedure was repeated once more under the same conditions, and the resulting crude membrane fraction was subjected to the assay.
The filter paper was transferred to a vial for radioactivity measurement, mixed with 5 mL of a liquid scintillation cocktail (Atomlight, from PACKARD), and the radioactivity on the filter was determined by a liquid scintillation counter (Model 1500, from PACKARD) for 2 minutes. The specific binding and the non-specific binding in the absence of the test compound were determined in the same way as above except for using 50% DMSO solution instead of the test compound and using a 100 μM Haloperidol solution instead of the test compound, respectively.
(3) Determination of Inhibition
The inhibitions of the test compound at individual concentrations were determined from the ratio of the specific binding in the presence of the test compound to the specific binding in the absence thereof. The dose-response curve was regressed according to a logit-log model in which the ratio of the specific binding in the presence of the test compound to the specific binding in the absence thereof was subjected to logit transformation and plotted against the common logarithm value of each concentration.

acetylcholinesterase = biological target: T1, acetylcholinesterase (Rattus norvegicus, UniProt P37136); test: Inhibitory effect on acetylcholinesterase (Ellman method, rat brain homogenate); format: biochemical; conditions: rat brain homogenate as source of acetylcholinesterase; read-out: Acetylcholinesterase inhibition IC50
T1 construct: from tissue; host or cells: rat brain homogenate
T1 sequence (P37136 32-614): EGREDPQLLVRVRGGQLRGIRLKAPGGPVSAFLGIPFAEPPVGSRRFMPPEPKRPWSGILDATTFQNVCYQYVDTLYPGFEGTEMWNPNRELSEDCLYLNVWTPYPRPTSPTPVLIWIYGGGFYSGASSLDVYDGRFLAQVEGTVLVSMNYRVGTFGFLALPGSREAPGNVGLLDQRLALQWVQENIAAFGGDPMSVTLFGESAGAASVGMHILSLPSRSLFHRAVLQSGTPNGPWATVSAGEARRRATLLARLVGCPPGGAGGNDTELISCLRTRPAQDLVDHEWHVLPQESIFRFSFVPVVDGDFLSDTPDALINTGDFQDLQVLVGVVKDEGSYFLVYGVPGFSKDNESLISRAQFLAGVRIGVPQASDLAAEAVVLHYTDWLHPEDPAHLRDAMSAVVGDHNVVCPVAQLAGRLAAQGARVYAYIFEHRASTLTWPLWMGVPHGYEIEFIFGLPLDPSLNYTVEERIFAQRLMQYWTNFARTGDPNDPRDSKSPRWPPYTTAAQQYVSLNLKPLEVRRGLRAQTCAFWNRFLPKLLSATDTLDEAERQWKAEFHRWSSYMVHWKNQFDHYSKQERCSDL
Method: Inhibitory Effect on Acetylcholinesterase
To DTNB (5,5′-dithiobis(2-nitrobenzoic acid)), acethylthiocholine (as a substrate) and a test compound was added the rat brain homogenate and incubated.

| Compound | IC50 (acetylcholinesterase) [nM] | further results |
| --- | --- | --- |
| COc1cc2c(cc1OC)C(=O)C(C1CCN(Cc3ccccc3)CC1)C2 (centres unmarked) [1-benzyl-4-(5,6-dimethoxy-1-indanon)-2-yl]piperidine] | – | sigma receptor binding action (sigma receptor [1]): has a sigma receptor binding action |
| COc1cc2c(cc1OC)C(=O)C(CC1CCN(Cc3ccccc3)CC1)C2 (centres unmarked) [1-benzyl-4-[(5,6-dimethoxy-1-indanon)-2-yl]methylpiperidine] | – | sigma receptor binding action (sigma receptor [1]): has a sigma receptor binding action |
| CCOc1cc2c(cc1OC)CC(CC1CCN(Cc3ccccc3)CC1)C2=O (centres unmarked) [Example 1, 1-benzyl-4-[(6-ethoxy-5-methoxy-1-indanon)-2-yl]methylpiperidine hydrochloride] | 7.2 | IC50 (Sigma receptor [2]): 5.1 nM |
| CCCOc1cc2c(cc1OC)C(=O)C(CC1CCN(Cc3ccccc3)CC1)C2 (centres unmarked) [Example 2, 1-benzyl-4-[[5-methoxy-6-(1-propyloxy)-1-indanon]-2-yl]methylpiperidine hydrochloride] | 2.7 | – |
| COc1cc2c(cc1OCC#N)CC(CC1CCN(Cc3ccccc3)CC1)C2=O (centres unmarked) [Example 7, 1-benzyl-4-[(5-cyanomethoxy-6-methoxy-1-indanon)-2-yl]methylpiperidine hydrochloride] | 2.4 | – |
| CCOc1cc2c(cc1OCC)C(=O)C(CC1CCN(Cc3cccc(F)c3)CC1)C2 (centres unmarked) [Example 9, 1-(3-fluorobenzyl)-4-[(5,6-diethoxy-1-indanon)-2-yl]methylpiperidine hydrochloride] | 3.4 | – |
| CCOc1cc2c(cc1OCC)C(=O)C(CC1CCN(Cc3cccc(C)c3)CC1)C2 (centres unmarked) [Example 15, 1-(3-methylbenzyl)-4-[(5,6-diethoxy-1-indanon)-2-yl]methylpiperidine hydrochloride] | 9.1 | – |
| CCOc1cc2c(cc1OC)CC(F)(CC1CCN(Cc3ccccc3)CC1)C2=O (centres unmarked) [Example 37, 1-benzyl-4-[(6-ethoxy-2-fluoro-5-methoxy-1-indanon)-2-yl]methylpiperidine hydrochloride] | 0.73 | IC50 (Sigma receptor [2]): 4.3 nM |
| CCOc1cc2c(cc1OC)C(=O)C(F)(CC1CCN(Cc3ccccc3)CC1)C2 (centres unmarked) [Example 38, 1-benzyl-4-[(5-ethoxy-2-fluoro-6-methoxy-1-indanon)-2-yl]methylpiperidine hydrochloride] | 0.28 | – |
| CCOc1cc2c(cc1OCC)C(=O)C(F)(CC1CCN(Cc3cccc(Cl)c3)CC1)C2 (centres unmarked) [Example 44, 1-(3-chlorobenzyl)-4-[(5,6-diethoxy-2-fluoro-1-indanon)-2-yl]methylpiperidine hydrochloride] | 0.75 | – |
| CCOc1cc2c(cc1OCC)C(=O)C(F)(CC1CCN(Cc3cccc(C)c3)CC1)C2 (centres unmarked) [Example 47, 1-(3-methylbenzyl)-4-[(5,6-diethoxy-2-fluoro-1-indanon)-2-yl]methylpiperidine hydrochloride] | 1 | – |
| CCOc1cc2c(cc1OCC)C(=O)C(F)(CC1CCN(CC3CCCCC3)CC1)C2 (centres unmarked) [Example 50, 1-cyclohexylmethyl-4-[(5,6-diethoxy-2-fluoro-1-indanon)-2-yl]methylpiperidine hydrochloride] | 1.9 | – |
| COc1cc2c(cc1OC)C(=O)C(Cl)(CC1CCN(Cc3ccccc3)CC1)C2.Cl (centres unmarked) [Example 67, 1-Benzyl-4-[(5,6-dimethoxy-2-chloro-1-indanon)-2-yl]methylpiperidine hydrochloride] | – | sigma receptor binding action (Sigma receptor [2]): found to have a sigma receptor binding action |
| CCOc1cc2c(cc1OCC)C(=O)C(Cl)(CC1CCN(Cc3ccccc3)CC1)C2.Cl (centres unmarked) [Example 68, 1-Benzyl-4-[(5,6-diethoxy-2-chloro-1-indanon)-2-yl]methylpiperidine hydrochloride] | – | IC50 (Sigma receptor [2]): 2.6 nM; sigma receptor binding action (Sigma receptor [2]): found to have a sigma receptor binding action |
| CCOc1cc2c(cc1OC)C(=O)C(Cl)(CC1CCN(Cc3ccccc3)CC1)C2.Cl (centres unmarked) [Example 69, 1-Benzyl-4-[(5-ethoxy-6-methoxy-2-chloro-1-indanon)-2-yl]methylpiperidine hydrochloride] | – | sigma receptor binding action (Sigma receptor [2]): found to have a sigma receptor binding action |
| COc1cc2c(cc1OC)C(=O)C(Br)(CC1CCN(Cc3ccccc3)CC1)C2.Cl (centres unmarked) [Example 70, 1-Benzyl-4-[(5,6-dimethoxy-2-bromo-1-indanon)-2-yl]methylpiperidine hydrochloride] | – | sigma receptor binding action (Sigma receptor [2]): found to have a sigma receptor binding action |
| COc1cc2c(cc1OC)C(=O)C(C)(CC1CCN(Cc3ccccc3)CC1)C2.Cl (centres unmarked) [Example 71, 1-Benzyl-4-[(5,6-dimethoxy-2-methyl-1-indanon)-2-yl]methylpiperidine hydrochloride] | – | sigma receptor binding action (Sigma receptor [2]): found to have a sigma receptor binding action |

From US20050107432A1, “Sigma receptor binder containing indanone derivative” (priority 2002, published 2005)
